Source: patent US20240150375A1, “MACROCYCLIC COMPOUNDS AND USES THEREOF” (Theseus Pharmaceuticals, Inc., priority 2021, published 2024)

Columns and labels:
Ba/F3 EGFR-Del19/T790M = Ba/F3 EGFR-Del19/T790M (Homo sapiens, UniProt P00533, T790M, cells depend on it, form not given); assay: Ba/F3 viability assay (CellTiter-Glo), EGFR-Del19/T790M (DT); assay type: cell-based; details: Ba/F3 EGFR-Del19/T790M anti-proliferation; read-out: BAF3 DT IC50
Description: (§1) Inhibition of cell proliferation can be studied using Ba/F3 viability assays, including the Promega CellTiter-Glo cell viability assay. This assay can be used to study the effect of compounds described herein in the following assays: (1) Ba/F3 Parental; (2) Ba/F3 EGFR-Del19/T790M; (3); Ba/F3 EGFR-Del19/C797S; and (4) Ba/F3 EGFR-Del119/T790M/C797S.
(§2) One hundred thirty six compounds were studied using the kinase (EGFR) and BA/F3 assays described herein, with more than 60% of the tested compounds providing IC50<50 nM values in all six assays. Accordingly, compounds of the invention are a new general class of kinase inhibitors, including potent inhibitors of EGFR mutants.
(§3) Exemplary kinase inhibition (Kinase) and anti-proliferation activity (Ba/F3) data are shown in Table 1 for certain compounds of the invention and are categorized according to the below legend.

EGFR^L858R/T790M = EGFR^L858R/T790M (Homo sapiens, UniProt P00533, L858R/T790M); assay: HTRF KinEASE-TK in vitro kinase assay, EGFR L858R/T790M (LT); assay type: biochemical; details: EGFR L858R/T790M kinase inhibition
Description: (§4) The biological activity of compounds described herein can be studied according to standard methods known in the art. Methods can be used to study inhibition of EGFR, including mutant forms of EGFR comprising L858R, T790M, C797S, and/or Del19 mutations, or any combination thereof (e.g., L858R single, double, or triple mutants). Exemplary, non-limiting methods are described herein.
(§5) Assays using an in vitro kinase assay kit (HTRF KinEASE-TK kit) can be used to study the inhibitory activity of compounds described herein with respect to EGFR mutants such as ECFR^L858R, EGFR^L858R/T790M, and EGFR^L858R/T790M/C797S.
as §2, §3

Ba/F3 EGFR-Del19/C797S = Ba/F3 EGFR-Del19/C797S (Homo sapiens, UniProt P00533, C797S, cells depend on it, form not given); assay: Ba/F3 viability assay (CellTiter-Glo), EGFR-Del19/C797S (DC); assay type: cell-based; details: Ba/F3 EGFR-Del19/C797S anti-proliferation; read-out: BAF3 DC IC50
Description: as §1, §2, §3

EGFR^L858R/T790M/C797S = EGFR^L858R/T790M/C797S (Homo sapiens, UniProt P00533, C797S/L858R/T790M); assay: HTRF KinEASE-TK in vitro kinase assay, EGFR L858R/T790M/C797S (LTC); assay type: biochemical; details: EGFR L858R/T790M/C797S kinase inhibition
Description: as §4, §5, §2, §3

[1] = target: Ba/F3 EGFR-Del19/T790M/C797S (Homo sapiens, UniProt P00533, T790M/C797S, cells depend on it, form not given); assay: Ba/F3 viability assay (CellTiter-Glo), EGFR-Del19/T790M/C797S (DTC); assay type: cell-based; details: Ba/F3 EGFR-Del19/T790M/C797S anti-proliferation; read-out: BAF3 DTC IC50
Description: as §1, §2, §3

EGFR^L858R = EGFR^L858R (Homo sapiens, UniProt P00533, L858R); assay: HTRF KinEASE-TK in vitro kinase assay, EGFR L858R (L); assay type: biochemical; details: EGFR L858R kinase inhibition
Description: as §4, §5, §2, §3

Ba/F3 EGFR-Del19/T790M, sequence (P00533 with tags, fused parts or gaps DEL746-750/T790M, form open): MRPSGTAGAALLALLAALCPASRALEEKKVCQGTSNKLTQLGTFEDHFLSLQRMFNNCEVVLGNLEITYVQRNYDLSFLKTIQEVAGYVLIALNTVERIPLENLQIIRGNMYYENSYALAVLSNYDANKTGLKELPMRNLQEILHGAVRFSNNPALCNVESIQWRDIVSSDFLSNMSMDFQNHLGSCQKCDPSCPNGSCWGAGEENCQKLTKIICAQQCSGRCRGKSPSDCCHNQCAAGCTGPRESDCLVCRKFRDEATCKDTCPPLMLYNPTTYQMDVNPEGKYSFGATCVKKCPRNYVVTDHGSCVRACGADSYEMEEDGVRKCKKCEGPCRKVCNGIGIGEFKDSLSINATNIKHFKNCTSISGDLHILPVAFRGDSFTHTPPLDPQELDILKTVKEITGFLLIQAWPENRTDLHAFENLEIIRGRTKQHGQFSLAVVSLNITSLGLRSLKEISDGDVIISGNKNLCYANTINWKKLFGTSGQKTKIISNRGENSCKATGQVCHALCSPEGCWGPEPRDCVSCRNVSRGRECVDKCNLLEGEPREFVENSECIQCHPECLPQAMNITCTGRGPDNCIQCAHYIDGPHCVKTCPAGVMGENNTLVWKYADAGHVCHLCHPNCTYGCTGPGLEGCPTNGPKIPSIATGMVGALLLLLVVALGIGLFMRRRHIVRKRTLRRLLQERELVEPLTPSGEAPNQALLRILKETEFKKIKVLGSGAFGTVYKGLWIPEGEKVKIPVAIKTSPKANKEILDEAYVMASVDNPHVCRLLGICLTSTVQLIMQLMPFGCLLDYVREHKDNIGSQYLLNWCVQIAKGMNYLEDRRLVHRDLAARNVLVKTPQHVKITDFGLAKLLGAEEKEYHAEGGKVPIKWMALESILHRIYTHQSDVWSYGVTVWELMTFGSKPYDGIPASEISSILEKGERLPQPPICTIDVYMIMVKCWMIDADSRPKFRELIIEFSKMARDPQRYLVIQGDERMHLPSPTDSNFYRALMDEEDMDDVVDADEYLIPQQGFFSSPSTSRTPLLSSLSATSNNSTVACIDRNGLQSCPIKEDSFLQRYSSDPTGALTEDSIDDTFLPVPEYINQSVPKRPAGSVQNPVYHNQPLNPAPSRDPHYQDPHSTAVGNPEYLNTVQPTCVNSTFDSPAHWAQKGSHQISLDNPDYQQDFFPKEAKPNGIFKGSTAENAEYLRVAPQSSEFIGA
EGFR^L858R/T790M/C797S, sequence (P00533 25-1210 T790M/C797S/L858R): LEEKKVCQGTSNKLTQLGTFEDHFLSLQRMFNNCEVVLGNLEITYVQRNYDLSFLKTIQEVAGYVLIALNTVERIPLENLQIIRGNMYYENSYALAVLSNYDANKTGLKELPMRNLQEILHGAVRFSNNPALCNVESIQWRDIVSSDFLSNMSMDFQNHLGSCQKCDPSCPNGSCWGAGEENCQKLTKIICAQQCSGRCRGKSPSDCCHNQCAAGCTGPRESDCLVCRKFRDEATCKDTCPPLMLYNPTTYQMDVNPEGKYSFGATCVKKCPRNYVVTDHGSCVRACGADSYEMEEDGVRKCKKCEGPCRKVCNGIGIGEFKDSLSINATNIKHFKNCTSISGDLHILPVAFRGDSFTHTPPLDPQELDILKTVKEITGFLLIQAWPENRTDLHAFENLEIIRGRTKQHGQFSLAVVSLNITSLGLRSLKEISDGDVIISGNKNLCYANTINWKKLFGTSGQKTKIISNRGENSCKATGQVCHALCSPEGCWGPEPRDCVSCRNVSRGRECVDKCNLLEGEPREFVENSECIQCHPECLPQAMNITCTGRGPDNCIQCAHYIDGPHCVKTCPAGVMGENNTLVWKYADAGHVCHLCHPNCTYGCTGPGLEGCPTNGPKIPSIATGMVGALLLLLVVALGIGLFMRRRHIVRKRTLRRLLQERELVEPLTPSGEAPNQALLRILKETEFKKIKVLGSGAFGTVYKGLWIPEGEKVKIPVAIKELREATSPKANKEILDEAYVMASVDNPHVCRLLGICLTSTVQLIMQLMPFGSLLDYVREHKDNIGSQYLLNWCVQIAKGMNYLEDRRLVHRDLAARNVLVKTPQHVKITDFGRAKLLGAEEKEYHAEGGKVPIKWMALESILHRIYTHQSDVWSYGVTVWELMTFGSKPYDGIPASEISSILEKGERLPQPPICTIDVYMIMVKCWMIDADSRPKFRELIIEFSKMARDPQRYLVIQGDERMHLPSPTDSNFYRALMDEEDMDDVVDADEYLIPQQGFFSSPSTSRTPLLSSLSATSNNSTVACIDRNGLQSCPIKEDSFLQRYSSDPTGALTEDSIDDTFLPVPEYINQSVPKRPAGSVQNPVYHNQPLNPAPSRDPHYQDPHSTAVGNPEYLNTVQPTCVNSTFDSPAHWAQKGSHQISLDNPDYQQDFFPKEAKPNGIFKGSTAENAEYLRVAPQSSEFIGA
Ba/F3 EGFR-Del19/T790M/C797S, sequence (P00533 with tags, fused parts or gaps DEL746-750/T790M/C797S, form open): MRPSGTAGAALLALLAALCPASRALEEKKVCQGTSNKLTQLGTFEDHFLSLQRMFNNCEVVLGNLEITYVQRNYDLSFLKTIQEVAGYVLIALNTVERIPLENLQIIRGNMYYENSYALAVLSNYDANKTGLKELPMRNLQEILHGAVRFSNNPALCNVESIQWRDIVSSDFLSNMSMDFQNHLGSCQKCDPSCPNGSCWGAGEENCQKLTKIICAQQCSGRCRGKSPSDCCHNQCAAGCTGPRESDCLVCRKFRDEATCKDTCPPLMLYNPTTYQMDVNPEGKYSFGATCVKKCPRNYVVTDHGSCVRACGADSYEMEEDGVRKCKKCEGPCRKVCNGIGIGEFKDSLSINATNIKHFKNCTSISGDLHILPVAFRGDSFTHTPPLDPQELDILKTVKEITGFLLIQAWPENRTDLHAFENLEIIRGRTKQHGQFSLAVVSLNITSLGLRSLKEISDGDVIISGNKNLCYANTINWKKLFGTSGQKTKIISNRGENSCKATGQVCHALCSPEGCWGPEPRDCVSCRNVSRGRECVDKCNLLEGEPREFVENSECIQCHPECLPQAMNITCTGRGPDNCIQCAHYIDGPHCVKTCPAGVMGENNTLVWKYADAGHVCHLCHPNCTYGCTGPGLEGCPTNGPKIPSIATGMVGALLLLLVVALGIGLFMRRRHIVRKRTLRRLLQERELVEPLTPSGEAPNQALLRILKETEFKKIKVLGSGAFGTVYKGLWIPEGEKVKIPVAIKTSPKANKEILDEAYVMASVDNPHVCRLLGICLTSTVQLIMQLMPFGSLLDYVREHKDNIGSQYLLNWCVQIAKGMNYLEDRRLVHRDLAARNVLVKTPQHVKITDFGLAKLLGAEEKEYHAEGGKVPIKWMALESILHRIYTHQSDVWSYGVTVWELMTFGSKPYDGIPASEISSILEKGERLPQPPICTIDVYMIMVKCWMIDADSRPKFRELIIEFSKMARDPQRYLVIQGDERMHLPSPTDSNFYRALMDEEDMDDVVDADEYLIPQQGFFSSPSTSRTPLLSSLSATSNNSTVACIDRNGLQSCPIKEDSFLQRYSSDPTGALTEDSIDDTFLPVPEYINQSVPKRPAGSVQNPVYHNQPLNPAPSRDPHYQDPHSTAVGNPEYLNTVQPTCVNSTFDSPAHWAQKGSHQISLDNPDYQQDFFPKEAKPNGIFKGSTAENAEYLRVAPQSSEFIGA
EGFR^L858R, sequence (P00533 25-1210 L858R): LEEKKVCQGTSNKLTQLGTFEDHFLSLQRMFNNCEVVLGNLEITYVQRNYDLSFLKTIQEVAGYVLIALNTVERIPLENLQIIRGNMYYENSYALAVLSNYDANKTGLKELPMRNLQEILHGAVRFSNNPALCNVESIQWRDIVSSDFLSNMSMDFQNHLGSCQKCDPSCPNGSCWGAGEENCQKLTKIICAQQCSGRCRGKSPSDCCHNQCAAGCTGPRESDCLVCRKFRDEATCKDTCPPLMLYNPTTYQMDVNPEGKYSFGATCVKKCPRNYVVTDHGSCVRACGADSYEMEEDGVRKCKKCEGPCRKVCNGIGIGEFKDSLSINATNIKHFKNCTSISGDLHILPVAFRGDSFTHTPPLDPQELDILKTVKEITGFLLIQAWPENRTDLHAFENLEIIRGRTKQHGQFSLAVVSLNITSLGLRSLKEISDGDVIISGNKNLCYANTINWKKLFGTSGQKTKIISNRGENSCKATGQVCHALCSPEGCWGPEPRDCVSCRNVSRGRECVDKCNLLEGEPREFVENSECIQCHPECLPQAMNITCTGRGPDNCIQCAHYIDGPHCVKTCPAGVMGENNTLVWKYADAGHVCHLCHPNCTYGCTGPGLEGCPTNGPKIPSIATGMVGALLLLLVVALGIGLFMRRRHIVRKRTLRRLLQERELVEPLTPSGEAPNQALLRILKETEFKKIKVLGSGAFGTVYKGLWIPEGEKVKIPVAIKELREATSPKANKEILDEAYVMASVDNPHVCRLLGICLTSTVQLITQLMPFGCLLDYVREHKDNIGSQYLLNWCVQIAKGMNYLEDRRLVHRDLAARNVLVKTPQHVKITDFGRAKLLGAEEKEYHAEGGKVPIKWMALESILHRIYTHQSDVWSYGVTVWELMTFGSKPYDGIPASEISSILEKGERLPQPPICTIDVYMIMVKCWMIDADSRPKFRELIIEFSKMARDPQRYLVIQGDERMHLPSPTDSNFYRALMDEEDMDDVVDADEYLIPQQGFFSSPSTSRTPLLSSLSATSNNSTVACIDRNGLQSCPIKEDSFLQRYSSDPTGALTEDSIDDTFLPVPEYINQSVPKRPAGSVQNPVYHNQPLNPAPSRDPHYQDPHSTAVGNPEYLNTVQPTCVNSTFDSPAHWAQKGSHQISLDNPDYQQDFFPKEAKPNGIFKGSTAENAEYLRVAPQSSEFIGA

| SMILES | GI50 (Ba/F3 EGFR-Del19/T790M) | IC50 (EGFR^L858R/T790M) | GI50 (Ba/F3 EGFR-Del19/C797S) | IC50 (EGFR^L858R/T790M/C797S) | GI50 [1] | IC50 (EGFR^L858R) |
| --- | --- | --- | --- | --- | --- | --- |
| Cc1nn(C2CCN(CCF)CC2)cc1-c1cnc2cc1O[C@@H](C)CCOc1c(cnn1C)-c1nccc(n1)N2 [(85)] | < 50 nM | < 50 nM | < 50 nM | < 50 nM | < 50 nM | < 50 nM |
| C[C@H]1CCOc2c(cnn2C)-c2nccc(n2)Nc2cc(c(-c3ccnn3CCN3CCOCC3)cn2)O1 [(89)] | ≥ 1000 nM | < 50 nM | ≥ 1000 nM | 100 to 1000 nM | ≥ 1000 nM | ≥ 1000 nM |
| C[C@H]1CCOc2c(cnn2C)-c2nccc(n2)Nc2cc(c(-c3ncc(CN4CCN(C)CC4)s3)cn2)O1 [(92)] | < 50 nM | < 50 nM | < 50 nM | < 50 nM | < 50 nM | < 50 nM |
| C[C@H]1CCOc2c(cnn2C)-c2nccc(n2)Nc2cc(c(-c3ccc(CN4CCN(C)CC4)n3C)cn2)O1 [(103)] | 100 to 1000 nM | < 50 nM | 100 to 1000 nM | < 50 nM | 100 to 1000 nM | 100 to 1000 nM |
| C[C@H]1CCOc2c(cnn2C)-c2nccc(n2)Nc2cc(c(-c3ncc(CN4CCOCC4)s3)cn2)O1 [(115)] | < 50 nM | < 50 nM | < 50 nM | < 50 nM | < 50 nM | < 50 nM |
| C[C@H]1CCOc2c(cnn2C)-c2nccc(n2)Nc2cc(c(-c3cnn(CCCN(C)C)c3)cn2)O1 [(123)] | < 50 nM | < 50 nM | < 50 nM | < 50 nM | < 50 nM | < 50 nM |
| C[C@H]1CCOc2c(cnn2C)-c2nccc(n2)Nc2cc(c(-c3ccc(CN4CCOCC4)cc3)cn2)O1 [(124)] | < 50 nM | < 50 nM | < 50 nM | < 50 nM | < 50 nM | < 50 nM |
| C[C@H]1CCOc2c(cnn2C)-c2nccc(n2)Nc2cc(c(-c3cc(CN4CCN(C)CC4)n(C)c3)cn2)O1 [(127), (10S)-5,10-dimethyl-13-[1-methyl-5-[(4-methylpiperazin-1-yl)methyl]pyrrol-3-yl]-7,11-dioxa-4,5,15,17,21,22-hexazatetracyclo[16.3.1.1^12,16.0^2,6]tricosa-1(22),2(6),3,12(23),13,15,18,20-octaene] | < 50 nM | < 50 nM | < 50 nM | < 50 nM | < 50 nM | < 50 nM |
| C[C@H]1CCOc2c(cnn2C)-c2nccc(n2)Nc2cc(c(-c3cnc(N4CCN(C)CC4)c(OCC(F)(F)F)c3)cn2)O1 [(128)] | 50 to 100 nM | < 50 nM | 50 to 100 nM | < 50 nM | < 50 nM | < 50 nM |
| C[C@H]1CCOc2c(cnn2C)-c2nccc(n2)Nc2cc(c(-c3ccc(N(C)CCN(C)C)cc3)cn2)O1 [(133)] | < 50 nM | < 50 nM | < 50 nM | < 50 nM | < 50 nM | < 50 nM |
| COc1cc(-c2cnc3cc2O[C@@H](C)CCOc2c(cnn2C)-c2nccc(n2)N3)cnc1N1CCN(C)CC1 [(137)] | < 50 nM | < 50 nM | < 50 nM | < 50 nM | < 50 nM | < 50 nM |
| C[C@H]1CCOc2c(cnn2C)-c2nccc(n2)Nc2cc(c(-c3ccc(N(C)CCN(C)C)nc3)cn2)O1 [(138)] | 50 to 100 nM | < 50 nM | 50 to 100 nM | < 50 nM | < 50 nM | < 50 nM |
| C[C@H]1CCOc2c(cnn2C)-c2nccc(n2)Nc2cc(c(-c3cnn(C4CCNCC4)c3)cn2)O1 [(141)] | < 50 nM | < 50 nM | < 50 nM | < 50 nM | < 50 nM | < 50 nM |
| C[C@H]1CCOc2c(cnn2C)-c2nccc(n2)Nc2cc(c(-c3cc(CN4CCOCC4)n(C)n3)cn2)O1 [(144)] | < 50 nM | < 50 nM | < 50 nM | < 50 nM | < 50 nM | < 50 nM |
| COC(=O)c1cc(-c2cnc3cc2O[C@@H](C)CCOc2c(cnn2C)-c2nccc(n2)N3)n(C)c1 [(145)] | 100 to 1000 nM | < 50 nM | 100 to 1000 nM | < 50 nM | 100 to 1000 nM | 100 to 1000 nM |
| C[C@H]1CCOc2c(cnn2C)-c2nccc(n2)Nc2cc(c(-c3ccc(CN4CCN(C)CC4)c(OCC(F)(F)F)c3)cn2)O1 [(146)] | < 50 nM | < 50 nM | < 50 nM | < 50 nM | < 50 nM | < 50 nM |
| COc1cc(-c2cnc3cc2O[C@@H](C)CCOc2c(cnn2C)-c2nccc(n2)N3)ccc1CN1CCN(C)CC1 [(147)] | < 50 nM | < 50 nM | < 50 nM | < 50 nM | < 50 nM | < 50 nM |
| C[C@H]1CCOc2c(cnn2C)-c2nccc(n2)Nc2cc(c(-c3cccc(NCCN(C)C)c3)cn2)O1 [(148)] | < 50 nM | < 50 nM | < 50 nM | < 50 nM | < 50 nM | < 50 nM |
| COc1cc(CN2CCN(C)CC2)ccc1-c1cnc2cc1O[C@@H](C)CCOc1c(cnn1C)-c1nccc(n1)N2 [(149)] | 50 to 100 nM | < 50 nM | < 50 nM | < 50 nM | < 50 nM | < 50 nM |
| CCOc1cc(-c2cnc3cc2O[C@@H](C)CCOc2c(cnn2C)-c2nccc(n2)N3)ccc1CN1CCN(C)CC1 [(150)] | < 50 nM | < 50 nM | < 50 nM | < 50 nM | < 50 nM | < 50 nM |
| C[C@H]1CCOc2c(cnn2C)-c2nccc(n2)Nc2cc(c(Cl)cn2)O1 [(151), (10S)-13-chloro-5,10-dimethyl-7,11-dioxa-4,5,15,17,21,22-hexazatetracyclo[16.3.1.112,16.02,6]tricosa-1(22),2(6),3,12(23),13,15,18,20-octaene] | 100 to 1000 nM | < 50 nM | 100 to 1000 nM | < 50 nM | 100 to 1000 nM | 50 to 100 nM |
| C[C@H]1CCOc2c(cnn2C)-c2nccc(n2)Nc2cc(c(-c3ccc(N4CCN(C)CC4)nc3)cn2)O1 [(152)] | < 50 nM | < 50 nM | < 50 nM | < 50 nM | < 50 nM | < 50 nM |
